Results published in patent US12398154B2, “Azaquinazoline pan-KRas inhibitors” (Mirati Therapeutics, Inc., priority 2020, dated 2025).

Tests used:
KRas WT = KRas WT (Homo sapiens, UniProt P01116); test: biochemical;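 note: binding to KRas read as TR-FRET displacement after a one-hour room-temperature incubation, IC50 derived from percent-of-control values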
Description: (§1) The ability of a compound to bind to KRas was measured using a TR-FRET displacement assay. […] After a 60-minute incubation at room temperature, the reaction was measured using a BMG LABTECH CLARIO star Plus via TR-FRET. […] The POC values were fit to a 4-parameter IC50 equation and the IC50 value reported.

KRas Q61H = biological target: T1, KRas Q61H (Homo sapiens, UniProt P01116, Q61H); test: KRas binding assay (TR-FRET displacement);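 note: TR-FRET signal read after one hour at room temperature, IC50 derived by four-parameter fitting of percent-of-control values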
T1 construct: Biotinylated KRas (corresponding to amino acids 1-169, produced at Accelegan Inc.); biotin (biotinylated); purchased Accelegan Inc
T1 sequence (P01116 1-169 isoform P01116-2 Q61H): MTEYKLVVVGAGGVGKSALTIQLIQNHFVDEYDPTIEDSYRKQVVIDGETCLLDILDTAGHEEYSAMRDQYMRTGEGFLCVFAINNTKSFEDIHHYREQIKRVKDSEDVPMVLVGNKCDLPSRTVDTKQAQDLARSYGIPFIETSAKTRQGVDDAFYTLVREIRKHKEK
Description: as §1

KRas G12A = KRas G12A (Homo sapiens, UniProt P01116, G12A); test: biochemical;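 note: binding to KRas measured by TR-FRET displacement after one hour at room temperature, IC50 from a four-parameter fit of percent-of-control values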
Sequence of KRas G12A (P01116 1-169 isoform P01116-2 G12A): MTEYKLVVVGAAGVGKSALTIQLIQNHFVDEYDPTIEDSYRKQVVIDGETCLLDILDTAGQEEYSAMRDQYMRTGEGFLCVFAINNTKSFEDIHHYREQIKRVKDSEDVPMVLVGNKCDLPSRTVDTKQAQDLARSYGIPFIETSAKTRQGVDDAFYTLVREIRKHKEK
Description: as §1

KRas G13D = biological target: T2, KRas G13D (Homo sapiens, UniProt P01116, G13D); test: KRas binding assay (TR-FRET displacement);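 note: One-hour room temperature incubation before TR-FRET reading, IC50 from a four-parameter curve fit to percent-of-control data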
T2 construct: Biotinylated KRas (corresponding to amino acids 1-169, produced at Accelegan Inc.); biotin (biotinylated); purchased Accelegan Inc
T2 sequence (P01116 1-169 isoform P01116-2 G13D): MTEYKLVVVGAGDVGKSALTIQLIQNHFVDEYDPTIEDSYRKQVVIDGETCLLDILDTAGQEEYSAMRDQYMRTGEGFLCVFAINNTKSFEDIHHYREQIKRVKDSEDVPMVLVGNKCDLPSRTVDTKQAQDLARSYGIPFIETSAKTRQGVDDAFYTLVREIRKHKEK
Description: as §1

KRas G12R = KRas G12R (Homo sapiens, UniProt P01116, G12R); test: biochemical;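 note: TR-FRET displacement assay of compound binding to KRas, read after one hour at room temperature, potency from a four-parameter fit of percent-of-control values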
Sequence of KRas G12R (P01116 1-169 isoform P01116-2 G12R): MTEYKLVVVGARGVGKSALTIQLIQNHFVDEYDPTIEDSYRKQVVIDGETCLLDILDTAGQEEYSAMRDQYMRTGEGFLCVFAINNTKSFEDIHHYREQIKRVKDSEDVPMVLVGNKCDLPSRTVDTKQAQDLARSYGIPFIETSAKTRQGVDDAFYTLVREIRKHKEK
Description: as §1

KRas G12D = KRas G12D (Homo sapiens, UniProt P01116, G12D); test: biochemical;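 note: TR-FRET displacement binding assay on KRas, read after a one-hour incubation at room temperature, IC50 fitted from percent-of-control values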
Sequence of KRas G12D (P01116 1-169 isoform P01116-2 G12D): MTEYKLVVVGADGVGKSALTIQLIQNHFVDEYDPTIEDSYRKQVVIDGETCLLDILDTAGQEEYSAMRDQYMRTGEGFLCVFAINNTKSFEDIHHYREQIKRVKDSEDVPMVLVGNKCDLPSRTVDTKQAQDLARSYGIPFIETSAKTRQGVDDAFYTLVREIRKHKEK
Description: as §1

KRas G12V = KRas G12V (Homo sapiens, UniProt P01116, G12V); test: biochemical;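 note: KRas binding measured by TR-FRET displacement at room temperature, IC50 fitted from percent of control values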
Sequence of KRas G12V (P01116 1-169 isoform P01116-2 G12V): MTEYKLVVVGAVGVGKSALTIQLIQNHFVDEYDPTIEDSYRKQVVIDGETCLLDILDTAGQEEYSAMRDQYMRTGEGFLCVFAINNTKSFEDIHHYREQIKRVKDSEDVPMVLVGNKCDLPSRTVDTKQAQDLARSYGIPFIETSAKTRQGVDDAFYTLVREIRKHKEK
Description: as §1

KRas G12S = KRas G12S (Homo sapiens, UniProt P01116, G12S); test: biochemical;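 note: TR-FRET displacement binding to KRas, read after one hour incubation at room temperature, IC50 from four-parameter fit of percent of control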
Sequence of KRas G12S (P01116 1-169 isoform P01116-2 G12S): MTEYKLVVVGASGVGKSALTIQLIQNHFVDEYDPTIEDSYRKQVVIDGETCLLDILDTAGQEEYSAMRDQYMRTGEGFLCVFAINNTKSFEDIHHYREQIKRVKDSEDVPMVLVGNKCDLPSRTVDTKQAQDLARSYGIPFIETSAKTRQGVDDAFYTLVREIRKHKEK
Description: as §1

KRas G12C = KRas G12C (Homo sapiens, UniProt P01116, G12C); test: biochemical;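 note: binding to KRas assessed by TR-FRET displacement after one hour incubation at room temperature, potency fitted from percent-of-control values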
Sequence of KRas G12C (P01116 1-169 isoform P01116-2 G12C): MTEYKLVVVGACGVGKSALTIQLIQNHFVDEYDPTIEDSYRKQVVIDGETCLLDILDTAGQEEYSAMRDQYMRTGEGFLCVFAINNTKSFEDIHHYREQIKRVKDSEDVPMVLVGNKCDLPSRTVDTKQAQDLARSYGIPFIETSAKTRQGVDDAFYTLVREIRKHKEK
Description: as §1

Sequence of KRas WT (P01116 1-169 isoform P01116-2): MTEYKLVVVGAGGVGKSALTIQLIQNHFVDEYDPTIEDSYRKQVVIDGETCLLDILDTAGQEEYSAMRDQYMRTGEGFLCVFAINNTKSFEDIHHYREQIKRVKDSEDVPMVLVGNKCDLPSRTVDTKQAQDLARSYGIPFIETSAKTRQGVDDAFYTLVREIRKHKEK

Row | Compound | IC50 (KRas WT) [µM] | IC50 (KRas Q61H) [nM] | IC50 (KRas G12A) [µM] | IC50 (KRas G13D) [nM] | IC50 (KRas G12R) [µM] | IC50 (KRas G12D) [µM] | IC50 (KRas G12V) [µM] | IC50 (KRas G12S) [µM] | IC50 (KRas G12C) [µM]
1 | CC1(O)COCCN(c2nc(OCC34CCCN3CCC4)nc3c(F)c(-c4cccc5cccc(F)c45)ncc23)C1 (stereo not drawn) [Example 64, 4-(8-fluoro-7-(8-fluoronaphthalen-1-yl)-2-((hexahydro-1H-pyrrolizin-7a-yl)methoxy)pyrido[4,3-d]pyrimidin-4-yl)-6-methyl-1,4-oxazepan-6-ol] | 0.997 | 1550 | 1.3 | 1360 | 2.55 | 0.568 | 1.36 | 1.15 | 1.06
2 | Nc1ncccc1CNc1nc(OCC23CCCN2CCC3)nc2c(F)c(-c3cccc4cccc(F)c34)ncc12 [Example 70, N-((2-aminopyridin-3-yl)methyl)-8-fluoro-7-(8-fluoronaphthalen-1-yl)-2-((hexahydro-1H-pyrrolizin-7a-yl)methoxy)pyrido[4,3-d]pyrimidin-4-amine] | 2.86 | 10800 | 0.403 | 11700 | 0.215 | 14.1 | 0.397 | 0.418 | 0.224
3 | O=C1CC2(CCN(c3nc(OCC45CCCN4CCC5)nc4c(F)c(-c5cccc6cccc(F)c56)ncc34)CC2)N1 [Example 77, 7-(8-fluoro-7-(8-fluoronaphthalen-1-yl)-2-((hexahydro-1H-pyrrolizin-7a-yl)methoxy)pyrido[4,3-d]pyrimidin-4-yl)-1,7-diazaspiro[3.5]nonan-2-one] | 1.41 | 1910 | 1.06 | 1210 | 2.21 | 12.8 | 1.35 | 1.17 | 1.64
4 | Nc1cc2n(n1)CCCN(c1nc(OCC34CCCN3CCC4)nc3c(F)c(-c4cccc5cccc(F)c45)ncc13)C2 [Example 78, 5-(8-fluoro-7-(8-fluoronaphthalen-1-yl)-2-((hexahydro-1H-pyrrolizin-7a-yl)methoxy)pyrido[4,3-d]pyrimidin-4-yl)-5,6,7,8-tetrahydro-4H-pyrazolo[1,5-a][1,4]diazepin-2-amine] | 2.68 | 3300 | 2.2 | 3800 | 1.76 | 0.677 | 1.53 | 1.24 | 1.26
5 | Fc1c(-c2cccc3cccc(F)c23)ncc2c(NCc3ccc4[nH]cnc4c3)nc(OCC34CCCN3CCC4)nc12 [Example 80, N-((1H-benzo[d]imidazol-5-yl)methyl)-8-fluoro-7-(8-fluoronaphthalen-1-yl)-2-((hexahydro-1H-pyrrolizin-7a-yl)methoxy)pyrido[4,3-d]pyrimidin-4-amine] | 6.84 | 10700 | 1.58 | 6310 | 1.47 | 29.8 | 1.59 | 2.57 | 1.25
6 | OC1CC2CC1CN(c1nc(OCC34CCCN3CCC4)nc3c(F)c(-c4cccc5cccc(F)c45)ncc13)C2 (stereo not drawn) [Example 81, 3-(8-fluoro-7-(8-fluoronaphthalen-1-yl)-2-((hexahydro-1H-pyrrolizin-7a-yl)methoxy)pyrido[4,3-d]pyrimidin 4-yl)-3-azabicyclo[3.2.1]octan-6-ol] | 0.864 | 1170 | 0.759 | 860 | 1.04 | 3.56 | 0.802 | 0.531 | 0.891
7 | OCC1COCCN(c2nc(OCC34CCCN3CCC4)nc3c(F)c(-c4cccc5cccc(F)c45)ncc23)C1 (stereo not drawn) [Example 83, (4-(8-fluoro-7-(8-fluoronaphthalen-1-yl)-2-((hexahydro-1H-pyrrolizin-7a-yl)methoxy)pyrido[4,3-d]pyrimidin-4-yl)-1,4-oxazepan-6-yl)methanol] | 1.2 | 1990 | 0.735 | 1890 | 0.992 | 0.392 | 0.498 | 0.703 | 0.509
8 | Fc1c(-c2cccc3cccc(F)c23)ncc2c(NCCCc3cc[nH]n3)nc(OCC34CCCN3CCC4)nc12 [Example 84, N-(3-(1H-pyrazol-3-yl)propyl)-8-fluoro-7-(8-fluoronaphthalen-1-yl)-2-((hexahydro-1H-pyrrolizin-7a-yl)methoxy)pyrido[4,3-d] pyrimidin-4-amine] | 4.29 | 5860 | 1.65 | 5070 | 2.5 | 12.7 | 1.86 | 2.07 | 0.863
9 | OCC12CC(Nc3nc(OCC45CCCN4CCC5)nc4c(F)c(-c5cccc6cccc(F)c56)ncc34)(C1)C2 [Example 85, (3-((8-fluoro-7-(8-fluoronaphthalen-1-yl)-2-((hexahydro-1H-pyrrolizin-7a-yl)methoxy)pyrido[4,3-d]pyrimidin-4-yl)amino)bicyclo[1.1.1]pentan-1-yl)methanol] | 4.52 | 10900 | 2.85 | 4660 | 2.12 | 44 | 3.7 | 4.64 | 2.15
10 | NC(=O)C1CCCN(c2nc(OCC34CCCN3CCC4)nc3c(F)c(-c4cccc5cccc(F)c45)ncc23)C1 (stereo not drawn) [Example 86, 1-(8-fluoro-7-(8-fluoronaphthalen-1-yl)-2-((hexahydro-1H-pyrrolizin-7a-yl)methoxy)pyrido[4,3-d]pyrimidin-4-yl)piperidine-3-carboxamide] | 2.41 | 4780 | 2.25 | 3000 | 8.49 | 6.9 | 3.1 | 2.39 | 3.08
11 | N#CC1CCCN(c2nc(OCC34CCCN3CCC4)nc3c(F)c(-c4cccc5cccc(F)c45)ncc23)CC1 (stereo not drawn) [Example 87, 1-(8-fluoro-7-(8-fluoronaphthalen-1-yl)-2-((hexahydro-1H-pyrrolizin-7a-yl)methoxy)pyrido[4,3-d]pyrimidin-4-yl)azepane-4-carbonitrile] | 6.09 | 9500 | 7.12 | 5260 | 11.9 | 3.36 | 3.66 | 10.8 | 5.94
12 | Cn1cc(CNc2nc(OCC34CCCN3CCC4)nc3c(F)c(-c4cccc5cccc(F)c45)ncc23)ccc1=O [Example 88, 5-(((8-fluoro-7-(8-fluoronaphthalen-1-yl)-2-((hexahydro-1H-pyrrolizin-7a-yl)methoxy)pyrido[4,3-d]pyrimidin-4-yl)amino)methyl)-methylpyridin-2 (1H)-one] | 7.17 | 14700 | 1.82 | 9310 | 4.37 | 30.7 | 2.18 | 4.24 | 2.51
13 | O[C@@H]1C[C@H](O)CN(c2nc(OCC34CCCN3CCC4)nc3c(F)c(-c4cccc5cccc(F)c45)ncc23)C1 [Example 89, (3S,5R)-1-(8-fluoro-7-(8-fluoronaphthalen-1-yl)-2-((hexahydro-l H-pyrrolizin-7a-yl)methoxy)pyrido[4,3-d]pyrimidin-4-yl)piperidine-3,5-diol] | 1.4 | 3270 | 1.25 | 1810 | 2.6 | 2.28 | 1.02 | 1.55 | 1.06
14 | OC12CC(Nc3nc(OCC45CCCN4CCC5)nc4c(F)c(-c5cccc6cccc(F)c56)ncc34)(C1)C2 [Example 90, 3-((8-fluoro-7-(8-fluoronaphthalen-1-yl)-2-((hexahydro-1H-pyrrolizin-7a-yl)methoxy)pyrido[4,3-d]pyrimidin-4-yl)amino)bicyclo[1.1.1]pentan-1-ol] | 7.24 | 19600 | 5.14 | 8210 | 4.19 | 40.2 | 3.47 | 6.48 | 4.18
15 | O=C(O)[C@H]1C[C@H](Nc2nc(OCC34CCCN3CCC4)nc3c(F)c(-c4cccc5cccc(F)c45)ncc23)C1 [Example 91, trans-3-((8-fluoro-7-(8-fluoronaphthalen-1-yl)-2-((tetrahydro-1H-pyrrolizin-7a(5H)-yl)methoxy)pyrido[4,3-d]pyrimidin-4-yl)amino)cyclobutane-1-carboxylic acid] | 14.1 | 31400 | 12.7 | 36600 | 2.2 | ≥ 100 | 12.7 | 17.9 | 11.3
16 | Fc1c(-c2cccc3cccc(F)c23)ncc2c(NCc3ncc4cc[nH]c4n3)nc(OCC34CCCN3CCC4)nc12 [Example 92, N-((7H-pyrrolo[2,3-d]pyrimidin-2-yl)methyl)-8-fluoro-7-(8-fluoronaphthalen-1-yl)-2-((hexahydro-1H-pyrrolizin-7a-yl)methoxy)pyrido[4,3-d]pyrimidin-4-amine] | 8.8 | 17300 | 6.55 | 8560 | 1.98 | 20.8 | 1.72 | 6.87 | 3.41
